How the values were obtained:
[1] = Arterial blood gas analysis; type: in vivo, rabbit; details: for pH: arterial blood
Experimental: Male New Zealand white rabbits weighing between 2.5 and 3.0 kg were anesthetized with intravenous sodium pentobarbital (30 mg/kg). Additional doses of pentobarbital were titrated as required to assure that pedal and palpebral reflexes were absent throughout the experiment. A tracheotomy was performed through a ventral midline incision, and the trachea was cannulated. The rabbits were ventilated with positive pressure using an air-oxygen mixture (FiO2=0.33). […] Body temperature was maintained with a heating blanket. Heparin-filled catheters were inserted into the right carotid artery and the left jugular vein for measurement of arterial blood pressure and fluid or drug administration, respectively. Maintenance fluids consisted of 0.9% saline (15 ml/kg/h) that were continued for the duration of the experiment.
(§1) Baseline measurements of systemic hemodynamics, arterial blood gas tensions, and blood concentrations of anesthetic agent were performed 30 min after instrumentation was completed. Rabbits received 0.9% saline, drug lipid vehicle (10 ml/h), or intravenous volatile anesthetic (10 ml/h) for 30 min. Infusions were discontinued 30 min prior to coronary occlusion (memory period). Blood concentrations of anesthetic agents were performed at baseline, at the end of anesthetic infusion, and at the end of the memory period just before coronary occlusion). HVA concentrations in blood were determined by gas chromatographic (GC) analysis. All rabbits underwent a 30 min LAD occlusion followed by 3 h reperfusion.
(§2) Statistical analysis of data within and between groups was performed with analysis of variance (ANOVA) for repeated measures followed by Student-Newman-Keuls test. Changes between groups were considered statistically significant when the p value was less than 0.05. All data are expressed as mean±SEM.

End-tidal gas analysis = type: in vivo, rabbit; details: for EtHalogenated: end-tidal
Experimental: as §1, §2

[2] = Literature MAC values in rabbits and 1 MAC-equivalent blood concentration; type: in vivo; details: 37° C., rabbit; x=λn
Experimental: “Minimum alveolar concentration (MAC)”, as is known in the art, is the alveolar concentration of an anesthetic, administered by inhalation at a pressure of 1 atmosphere, that prevents movement in 50% of patients in response to a painful stimuli. The MAC is age-dependent; it may be affected by a patient's medical condition; and it may also be affected by other pharmaceutical agents that are administered to the patient. In the context of intravenous administration of HVAs, the term “MAC” or “MAC-equivalent” is intended to mean an intravenous dose which produces the same blood plasma concentration of an anesthetic agent as that attained by inhalational administration of a gaseous concentration of anesthetic which prevents such movement in 50% of patients.
Blood concentrations as measured by GC were converted to their MAC-equivalent values by calculations described below. Initially “n”, or the number of moles of HVA in 1 L of alveolar gas during exposure to 1.0 MAC of the HVA was calculated.
The number of moles of the HVA in 1 L at 37° C. at 1 MAC in rabbits was then used to determine the concentration of the HVA present in blood by using known blood/gas partition values (also known as λ). […] The value for “x” (or the equivalent blood concentration of the HVA at 1 MAC at 37° C. in rabbit) is then determined by the equation: x=λn

[3] = literature values determined in rabbits; cited from earlier work
[4] = blood/gas; cited from earlier work

FC(F)OC(F)C(F)(F)F (centres unmarked) [DES, desflurane]
PaCO2 ([1]; Baseline): 29 ± 2 mmHg | PaO2 ([1]; Baseline): 158 ± 23 mmHg | PaCO2 ([1]; Infusion): 32 ± 3 mmHg | PaO2 ([1]; Infusion): 157 ± 17 mmHg | PaCO2 ([1]; Ischemia 30 min): 31 ± 3 mmHg | PaO2 ([1]; Ischemia 30 min): 136 ± 24 mmHg | PaCO2 ([1]; Memory): 34 ± 3 mmHg | PaO2 ([1]; Memory): 143 ± 17 mmHg | PaCO2 ([1]; Reperfusion 1 h): 30 ± 4 mmHg | PaO2 ([1]; Reperfusion 1 h): 141 ± 19 mmHg | PaCO2 ([1]; Reperfusion 2 h): 26 ± 3 mmHg | PaO2 ([1]; Reperfusion 2 h): 155 ± 18 mmHg | PaCO2 ([1]; Reperfusion 3 h): 30 ± 1 mmHg | PaO2 ([1]; Reperfusion 3 h): 165 ± 12 mmHg | pH ([1]; Baseline): 7.45 ± 0.02 | pH ([1]; Infusion): 7.40 ± 0.02 | pH ([1]; Ischemia 30 min): 7.34 ± 0.01 | pH ([1]; Memory): 7.36 ± 0.02 | pH ([1]; Reperfusion 1 h): 7.37 ± 0.02 | pH ([1]; Reperfusion 2 h): 7.40 ± 0.01 | pH ([1]; Reperfusion 3 h): 7.41 ± 0.01 | EtCO2 (End-tidal gas analysis; Baseline): 31 ± 2 mmHg | EtCO2 (End-tidal gas analysis; Infusion): 30 ± 2 mmHg | EtCO2 (End-tidal gas analysis; Ischemia 30 min): 26 ± 3 mmHg | EtCO2 (End-tidal gas analysis; Memory): 28 ± 3 mmHg | EtCO2 (End-tidal gas analysis; Reperfusion 1 h): 29 ± 4 mmHg | EtCO2 (End-tidal gas analysis; Reperfusion 2 h): 28 ± 3 mmHg | EtCO2 (End-tidal gas analysis; Reperfusion 3 h): 29 ± 3 mmHg | EtHalogenated (End-tidal gas analysis; Baseline): 0% | EtHalogenated (End-tidal gas analysis; Infusion): 0.37 ± 0.03 % | EtHalogenated (End-tidal gas analysis; Ischemia 30 min): 0.01 ± 0.00% | EtHalogenated (End-tidal gas analysis; Memory): 0.03 ± 0.01% | EtHalogenated (End-tidal gas analysis; Reperfusion 1 h): 0.00 ± 0.00% | EtHalogenated (End-tidal gas analysis; Reperfusion 2 h): 0.00 ± 0.00% | EtHalogenated (End-tidal gas analysis; Reperfusion 3 h): 0.00 ± 0.00% | 1 MAC-Equivalent Blood Concentration at 1 MAC ("x") [2]: 1.38 mM | Average MAC [3]: 8.9 % v/v | Partition Coefficient ("λ") [4]: 0.42

FC(F)OC(F)(F)C(F)Cl (centres unmarked) [ENF, enflurane]
PaCO2 ([1]; Baseline): 28 ± 2 mmHg | PaO2 ([1]; Baseline): 151 ± 16 mmHg | PaCO2 ([1]; Infusion): 31 ± 2 mmHg | PaO2 ([1]; Infusion): 130 ± 14 mmHg | PaCO2 ([1]; Ischemia 30 min): 32 ± 2 mmHg | PaO2 ([1]; Ischemia 30 min): 157 ± 22 mmHg | PaCO2 ([1]; Memory): 30 ± 2 mmHg | PaO2 ([1]; Memory): 149 ± 16 mmHg | PaCO2 ([1]; Reperfusion 1 h): 28 ± 2 mmHg | PaO2 ([1]; Reperfusion 1 h): 143 ± 11 mmHg | PaCO2 ([1]; Reperfusion 2 h): 27 ± 2 mmHg | PaO2 ([1]; Reperfusion 2 h): 135 ± 10 mmHg | PaCO2 ([1]; Reperfusion 3 h): 32 ± 3 mmHg | PaO2 ([1]; Reperfusion 3 h): 131 ± 12 mmHg | pH ([1]; Baseline): 7.47 ± 0.02 | pH ([1]; Infusion): 7.41 ± 0.02 | pH ([1]; Ischemia 30 min): 7.37 ± 0.02 | pH ([1]; Memory): 7.40 ± 0.02 | pH ([1]; Reperfusion 1 h): 7.38 ± 0.02 | pH ([1]; Reperfusion 2 h): 7.40 ± 0.03 | pH ([1]; Reperfusion 3 h): 7.42 ± 0.02 | EtCO2 (End-tidal gas analysis; Baseline): 36 ± 2 mmHg | EtCO2 (End-tidal gas analysis; Infusion): 37 ± 2 mmHg | EtCO2 (End-tidal gas analysis; Ischemia 30 min): 33 ± 3 mmHg | EtCO2 (End-tidal gas analysis; Memory): 34 ± 2 mmHg | EtCO2 (End-tidal gas analysis; Reperfusion 1 h): 33 ± 3 mmHg | EtCO2 (End-tidal gas analysis; Reperfusion 2 h): 33 ± 3 mmHg | EtCO2 (End-tidal gas analysis; Reperfusion 3 h): 35 ± 3 mmHg | EtHalogenated (End-tidal gas analysis; Baseline): 0% | EtHalogenated (End-tidal gas analysis; Infusion): 0.27 ± 0.02% | EtHalogenated (End-tidal gas analysis; Ischemia 30 min): 0.00 ± 0.00% | EtHalogenated (End-tidal gas analysis; Memory): 0.02 ± 0.01% | EtHalogenated (End-tidal gas analysis; Reperfusion 1 h): 0.00 ± 0.00% | EtHalogenated (End-tidal gas analysis; Reperfusion 2 h): 0.00 ± 0.00% | EtHalogenated (End-tidal gas analysis; Reperfusion 3 h): 0.00 ± 0.00% | 1 MAC-Equivalent Blood Concentration at 1 MAC ("x") [2]: 1.995 mM | Average MAC [3]: 2.86 % v/v | Partition Coefficient ("λ") [4]: 1.9

FC(F)OC(Cl)C(F)(F)F (centres unmarked) [ISO, isoflurane]
PaCO2 ([1]; Baseline): 34 ± 2 mmHg | PaO2 ([1]; Baseline): 136 ± 17 mmHg | PaCO2 ([1]; Infusion): 34 ± 2 mmHg | PaO2 ([1]; Infusion): 124 ± 11 mmHg | PaCO2 ([1]; Ischemia 30 min): 33 ± 2 mmHg | PaO2 ([1]; Ischemia 30 min): 166 ± 24 mmHg | PaCO2 ([1]; Memory): 36 ± 2 mmHg | PaO2 ([1]; Memory): 146 ± 15 mmHg | PaCO2 ([1]; Reperfusion 1 h): 31 ± 2 mmHg | PaO2 ([1]; Reperfusion 1 h): 167 ± 12 mmHg | PaCO2 ([1]; Reperfusion 2 h): 32 ± 2 mmHg | PaO2 ([1]; Reperfusion 2 h): 169 ± 12 mmHg | PaCO2 ([1]; Reperfusion 3 h): 33 ± 2 mmHg | PaO2 ([1]; Reperfusion 3 h): 160 ± 13 mmHg | pH ([1]; Baseline): 7.43 ± 0.02 | pH ([1]; Infusion): 7.40 ± 0.03 | pH ([1]; Ischemia 30 min): 7.36 ± 0.02 | pH ([1]; Memory): 7.36 ± 0.02 | pH ([1]; Reperfusion 1 h): 7.39 ± 0.02 | pH ([1]; Reperfusion 2 h): 7.39 ± 0.02 | pH ([1]; Reperfusion 3 h): 7.39 ± 0.01 | EtCO2 (End-tidal gas analysis; Baseline): 34 ± 1 mmHg | EtCO2 (End-tidal gas analysis; Infusion): 34 ± 1 mmHg | EtCO2 (End-tidal gas analysis; Ischemia 30 min): 30 ± 2 mmHg | EtCO2 (End-tidal gas analysis; Memory): 33 ± 2 mmHg | EtCO2 (End-tidal gas analysis; Reperfusion 1 h): 27 ± 2 mmHg | EtCO2 (End-tidal gas analysis; Reperfusion 2 h): 28 ± 2 mmHg | EtCO2 (End-tidal gas analysis; Reperfusion 3 h): 30 ± 2 mmHg | EtHalogenated (End-tidal gas analysis; Baseline): 0% | EtHalogenated (End-tidal gas analysis; Infusion): 0.31 ± 0.02% | EtHalogenated (End-tidal gas analysis; Ischemia 30 min): 0.00 ± 0.00% | EtHalogenated (End-tidal gas analysis; Memory): 0.02 ± 0.01% | EtHalogenated (End-tidal gas analysis; Reperfusion 1 h): 0.00 ± 0.00% | EtHalogenated (End-tidal gas analysis; Reperfusion 2 h): 0.00 ± 0.00% | EtHalogenated (End-tidal gas analysis; Reperfusion 3 h): 0.00 ± 0.00% | 1 MAC-Equivalent Blood Concentration at 1 MAC ("x") [2]: 1.06 mM | Average MAC [3]: 2.05 % v/v | Partition Coefficient ("λ") [4]: 1.4

FCOC(C(F)(F)F)C(F)(F)F [SEVO, sevoflurane]
PaCO2 ([1]; Baseline): 37 ± 1 mmHg | PaO2 ([1]; Baseline): 125 ± 8^ mmHg | PaCO2 ([1]; Infusion): 38 ± 1 mmHg | PaO2 ([1]; Infusion): 118 ± 6 mmHg | PaCO2 ([1]; Ischemia 30 min): 40 ± 1 mmHg | PaO2 ([1]; Ischemia 30 min): 106 ± 12 mmHg | PaCO2 ([1]; Memory): 41 ± 1 mmHg | PaO2 ([1]; Memory): 107 ± 11 mmHg | PaCO2 ([1]; Reperfusion 1 h): 38 ± 1 mmHg | PaO2 ([1]; Reperfusion 1 h): 120 ± 7 mmHg | PaCO2 ([1]; Reperfusion 2 h): 38 ± 1 mmHg | PaO2 ([1]; Reperfusion 2 h): 127 ± 6^ mmHg | PaCO2 ([1]; Reperfusion 3 h): 39 ± 1 mmHg | PaO2 ([1]; Reperfusion 3 h): 121 ± 8 mmHg | pH ([1]; Baseline): 7.44 ± 0.01 | pH ([1]; Infusion): 7.42 ± 0.01 | pH ([1]; Ischemia 30 min): 7.38 ± 0.01 | pH ([1]; Memory): 7.39 ± 0.01 | pH ([1]; Reperfusion 1 h): 7.39 ± 0.01 | pH ([1]; Reperfusion 2 h): 7.40 ± 0.01 | pH ([1]; Reperfusion 3 h): 7.39 ± 0.01 | EtCO2 (End-tidal gas analysis; Baseline): 35 ± 1 mmHg | EtCO2 (End-tidal gas analysis; Infusion): 36 ± 1 mmHg | EtCO2 (End-tidal gas analysis; Ischemia 30 min): 35 ± 1 mmHg | EtCO2 (End-tidal gas analysis; Memory): 36 ± 1 mmHg | EtCO2 (End-tidal gas analysis; Reperfusion 1 h): 34 ± 1 mmHg | EtCO2 (End-tidal gas analysis; Reperfusion 2 h): 33 ± 1 mmHg | EtCO2 (End-tidal gas analysis; Reperfusion 3 h): 34 ± 1 mmHg | EtHalogenated (End-tidal gas analysis; Baseline): 0% | EtHalogenated (End-tidal gas analysis; Infusion): 0.34 ± 0.02% | EtHalogenated (End-tidal gas analysis; Ischemia 30 min): 0.04 ± 0.01% | EtHalogenated (End-tidal gas analysis; Memory): 0.07 ± 0.01% | EtHalogenated (End-tidal gas analysis; Reperfusion 1 h): 0.03 ± 0.01% | EtHalogenated (End-tidal gas analysis; Reperfusion 2 h): 0.04 ± 0.01% | EtHalogenated (End-tidal gas analysis; Reperfusion 3 h): 0.05 ± 0.01% | 1 MAC-Equivalent Blood Concentration at 1 MAC ("x") [2]: 0.94 mM | Average MAC [3]: 3.7 % v/v | Partition Coefficient ("λ") [4]: 0.69

Source: US7999011B2, “Method for cardioprotection and neuroprotection by intravenous administration of halogenated volatile anesthetics” (Baxter International Inc., priority 2002, dated 2011)
